Assay results reported in PubChem BioAssay (NCI).
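Following 48 hours of exposure in 96-well plates, responses at five concentrations were used to interpolate endpoints linearly. Abbreviation: GI50, concentration required for 50% inhibition of growth. The concentration for full growth arrest is given as TGI.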

What was measured:
Assay in all cases: NCI tumour cell line growth inhibition, 48 h
[1] = system: HCT-116 colon
[2] = system: OVCAR-3 ovarian
[3] = system: ACHN renal
[4] = system: NCI-H226 lung
[5] = system: XF 498 CNS
[6] = system: TK-10 renal
[7] = system: DMS 114 small cell lung
[8] = system: SR leukemia
[9] = system: A549 NSCLC
[10] = system: MCF7 breast
[11] = system: MDA-MB-435
[12] = system: P388/ADR leukemia
[13] = system: P388 leukemia
[14] = system: OVCAR-4 ovarian

| SMILES | TGI [1] | TGI [2] | TGI [3] | TGI [4] | TGI [5] | TGI [6] | TGI [7] | TGI [8] | GI50 [9] | TGI [9] | GI50 [6] | GI50 [8] | GI50 [10] | TGI [10] | GI50 [11] | TGI [11] | TGI [12] | TGI [13] | TGI [14] |
| --- | --- | --- | --- | --- | --- | --- | --- | --- | --- | --- | --- | --- | --- | --- | --- | --- | --- | --- | --- |
| Clc1ccc2c(Cl)nc(-c3ccccc3)nc2c1 | > 100 µM | 50.1 µM | > 100 µM | 55.9 µM | 35.6 µM | > 100 µM | 74 µM | > 100 µM | – | – | – | – | – | – | – | – | – | – | – |
| c1ccc(C2=NN[C@H](c3cn(-c4ccccc4)nc3-c3ccccc3)C2)cc1 | – | – | – | – | – | 7.74 µM | – | > 100 µM | 4.02 µM | > 100 µM | 2.82 µM | > 100 µM | > 100 µM | > 100 µM | > 100 µM | > 100 µM | – | – | – |
| Cc1n(CC(C)C)c2c([n+]1CC(=O)c1ccc([N+](=O)[O-])cc1)C(=O)c1ccccc1C2=O | – | – | – | 0.0523 µM | – | – | – | – | – | 0.933 µM | – | – | – | < 0.01 µM | – | – | 61.3 µM | 0.563 µM | 0.055 µM |
